# Assay results taken from PMC5003785, “An unusual UMP C-5 methylase in nucleoside antibiotic polyoxin biosynthesis” (Protein & Cell, 2016).
# T1: ThyX (Streptomyces asoensis, UniProt M1ETU3)
# T1 construct: gene thyX_2; recombinant
# T1 sequence (M1ETU3 1-246): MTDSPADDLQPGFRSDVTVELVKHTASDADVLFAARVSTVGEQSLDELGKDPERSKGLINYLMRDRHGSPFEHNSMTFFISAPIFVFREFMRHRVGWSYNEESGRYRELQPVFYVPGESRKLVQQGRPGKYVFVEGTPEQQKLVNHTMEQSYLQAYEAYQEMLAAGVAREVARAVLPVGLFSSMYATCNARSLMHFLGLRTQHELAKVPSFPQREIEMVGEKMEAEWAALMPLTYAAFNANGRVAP
# Tests used:
# PolB = target: T2, PolB (Streptomyces asoensis, UniProt C1IC19); test: crystal structure; assay type: binding
# T2 construct: N-terminal His6-tagged, expressed in E. coli BL21(DE3); FAD-containing; homotetramer
# ThyX = target: T1, ThyX; test: LC-MS methylation assay; assay type: biochemical; conditions: NADPH, CH2H4folate; 50 mmol/L Tris-HCl pH 8.0
# SVIThyX2 = target: T3, SVIThyX2 (Streptomyces viridochromogenes, UniProt D9X6S9); test: LC-MS methylation assay; assay type: biochemical; conditions: NADPH, CH2H4folate; 50 mmol/L Tris-HCl pH 8.0
# T3 construct: gene thyX
# [1] = target: PolB from S. cacaoi (UMP C-5 methylase with thymidylate synthase activity) (S. cacaoi); test: crystal structure; apo-PolB, space group P2(1), two tetramers in the asymmetric unit; 17% PEG4000, 0.2 mol/L Li2SO4, 0.1 mol/L Tris-HCl pH 8.5, 20°C
# [2] = target: PolB from S. cacaoi (UMP C-5 methylase with thymidylate synthase activity) (S. cacaoi); test: crystal structure; PolB with 4 mmol/L 5-Br dUMP; 1.4 mol/L sodium acetate, 0.1 mol/L sodium cacodylate pH 6.5, 20°C
# methylation kinetics [3] = substrate: O=c1ccn([C@H]2C[C@H](O)[C@@H](COP(=O)(O)O)O2)c(=O)[nH]1; test: methylation kinetics; assay type: biochemical, Streptomyces asoensis; conditions: NADPH and CH2H4folate co-substrates, assay buffer 50 mmol/L Tris-HCl pH 8.0
# methylation kinetics [4] = substrate: O=c1ccn([C@@H]2O[C@H](COP(=O)(O)O)[C@@H](O)[C@H]2O)c(=O)[nH]1; test: methylation kinetics; assay type: biochemical, Streptomyces asoensis; conditions: NADPH and CH2H4folate co-substrates, assay buffer 50 mmol/L Tris-HCl pH 8.0
# T3 sequence (D9X6S9 entry or part of it): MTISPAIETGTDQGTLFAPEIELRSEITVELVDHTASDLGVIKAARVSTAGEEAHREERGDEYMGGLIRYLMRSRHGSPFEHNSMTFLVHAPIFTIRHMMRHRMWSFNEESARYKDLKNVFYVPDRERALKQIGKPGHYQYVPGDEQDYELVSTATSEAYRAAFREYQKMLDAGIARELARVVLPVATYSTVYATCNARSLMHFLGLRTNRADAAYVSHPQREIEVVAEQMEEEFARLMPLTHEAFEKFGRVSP
molecule,measurement,setting,value
O=c1[nH]c(=O)n([C@H]2C[C@H](O)[C@@H](COP(=O)(O)O)O2)cc1Br [5-Br dUMP],crystal structure,"PolB; 2.28 Å, substrate analog in active site, stacked on FAD isoalloxazine",structures in complex with substrate analogs 5-Br dUMP and 5-Br UMP
O=c1ccn([C@H]2C[C@H](O)[C@@H](COP(=O)(O)O)O2)c(=O)[nH]1 [dUMP],LC-MS methylation assay,ThyX,recombinant S. cacaoi ThyX could catalyze the methylation of dUMP but not UMP
same,LC-MS methylation assay,SVIThyX2,SVIThyX2 was able to catalyze the methylation for both UMP and dUMP
O=c1[nH]c(=O)n([C@@H]2O[C@H](COP(=O)(O)O)[C@@H](O)[C@H]2O)cc1Br [5-Br UMP],crystal structure,"PolB; 1.76 Å, substrate analog in active site",structures in complex with substrate analogs 5-Br dUMP and 5-Br UMP
Cc1cc2nc3c(=O)[nH]c(=O)nc-3n(C[C@H](O)[C@H](O)[C@H](O)COP(=O)(O)OP(=O)(O)OC[C@H]3O[C@@H](n4cnc5c(N)ncnc54)[C@H](O)[C@@H]3O)c2cc1C [FAD],crystal structure,PolB; bound flavin in the 5-Br dUMP complex,5-Br dUMP poses strong π-π interaction with the isoalloxazine moiety of FAD
PolB from S. cacaoi (UMP C-5 methylase with thymidylate synthase activity) (enzyme),stoichiometry N,[1],4
same,stoichiometry N,[2],4
O=c1ccn([C@@H]2O[C@H](COP(=O)(O)O)[C@@H](O)[C@H]2O)c(=O)[nH]1 [UMP],LC-MS methylation assay,SVIThyX2,SVIThyX2 was able to catalyze the methylation for both UMP and dUMP
"PolB (Streptomyces asoensis) (protein, N-terminal His6-tagged, expressed in E. coli BL21(DE3); FAD-containing; homotetramer) MESPRIELRSDITVELVDSSASDLAVVKAARVSTAGEDANDELYDGGSTRGLIRYLMRSRHGSPFEHNSMTFLVRAPIFTVRHLMRHRTWSFNEESARYREVGAAFYVPDATRLLRQEGKPGDYRYVGGSTDDHQQVVRSATRAYEVAFEEYQRLLDSGIAREIARLVLPVSTYSVLYATCNARALMHFLSLRTHRPDAAYVSHPQREIEMVAEQMETAWAKLMPVTHEAFTAFGRVSP",Km,methylation kinetics [3],12.96 ± 0.89 µM
same,kcat,methylation kinetics [3],0.029 ± 0.00083 s⁻¹
same,Km,methylation kinetics [4],19.48 ± 4.15 µM
same,kcat,methylation kinetics [4],0.0515 ± 0.00283 s⁻¹
